Organism: Rattus norvegicus
Experiment: DrugMatrix - Regimen: Daily Repeat
Type: toxicity, organism-based, Sprague-Dawley
Design: regimen Daily Repeat, gender Male, age 6-8 weeks
Conditions: in vivo, po, 44 mg/kg, route oral GAVAGE, dose level Low, vehicle 100 % WATER; for ABSOLUTE BASOPHIL / ABSOLUTE EOSINOPHIL / ABSOLUTE LYMPHOCYTE / ABSOLUTE MONOCYTE / ABSOLUTE SEGMENTED NEUTROPHIL / BASOPHIL / EOSINOPHIL / ERYTHROCYTE COUNT / HEMATOCRIT / HEMOGLOBIN / LEUKOCYTE COUNT / LYMPHOCYTE / MEAN CORPUSCULAR HEMOGLOBIN / MEAN CORPUSCULAR HEMOGLOBIN CONCENTRATION / MEAN CORPUSCULAR VOLUME / MONOCYTE / NEUTROPHIL / NUCLEATED RED BLOOD CELLS / PLATELET COUNT: tissue Blood; for ALANINE AMINOTRANSFERASE / ALBUMIN / ALKALINE PHOSPHATASE / ASPARTATE AMINOTRANSFERASE / BLOOD UREA NITROGEN / CARBON DIOXIDE / CHLORIDE / CHOLESTEROL / CREATINE PHOSPHOKINASE / CREATININE / GLUCOSE / LACTATE DEHYDROGENASE / LIPASE / PHOSPHORUS / POTASSIUM / SODIUM / TOTAL BILIRUBIN / TOTAL PROTEIN / URIC ACID: tissue Plasma

## Cn1c(=O)c2c(ncn2CC2OCCO2)n(C)c1=O [DOXOFYLLINE]
72 h, time 3 day
  ABSOLUTE BASOPHIL: 0 CELLS/uL
  ABSOLUTE EOSINOPHIL: 159 CELLS/uL
  ABSOLUTE LYMPHOCYTE: 15168.33 CELLS/uL
  ABSOLUTE MONOCYTE: 106 CELLS/uL
  ABSOLUTE SEGMENTED NEUTROPHIL: 1466.67 CELLS/uL
  BASOPHIL: 0%
  EOSINOPHIL: 1%
  ERYTHROCYTE COUNT: 5.65 x10E6/uL
  HEMATOCRIT: 36.33%
  HEMOGLOBIN: 13.93 G/DL
  LEUKOCYTE COUNT: 16.9 x10E3/uL
  LYMPHOCYTE: 89.67%
  MEAN CORPUSCULAR HEMOGLOBIN: 24.67 pg
  MEAN CORPUSCULAR HEMOGLOBIN CONCENTRATION: 38.37 G/DL
  MEAN CORPUSCULAR VOLUME: 64.23 fL
  MONOCYTE: 0.67%
  NEUTROPHIL: 8.67%
  NUCLEATED RED BLOOD CELLS: 0 /100WBC
  PLATELET COUNT: 1263 x10E3/uL
  ALANINE AMINOTRANSFERASE: 51.33 u/L
  ALBUMIN: 4.3 G/DL
  ALKALINE PHOSPHATASE: 393.67 u/L
  ASPARTATE AMINOTRANSFERASE: 90.67 u/L
  BLOOD UREA NITROGEN: 15.67 mg/dL
  CARBON DIOXIDE: 27 mmol/L
  CHLORIDE: 100.33 MEQ/L
  CHOLESTEROL: 80.67 mg/dL
  CREATINE PHOSPHOKINASE: 250.67 u/L
  CREATININE: 0.19 mg/dL
  GLUCOSE: 159.33 mg/dL
  LACTATE DEHYDROGENASE: 324 u/L
  LIPASE: 9.67 u/L
  PHOSPHORUS: 14.4 mg/dL
  POTASSIUM: 7.21 MEQ/L
  SODIUM: 145.63 MEQ/L
  TOTAL BILIRUBIN: 0.17 mg/dL
  TOTAL PROTEIN: 5.9 G/DL
  URIC ACID: 1.83 mg/dL
120 h, time 5 day
  ABSOLUTE BASOPHIL: 0 CELLS/uL
  ABSOLUTE EOSINOPHIL: 0 CELLS/uL
  ABSOLUTE LYMPHOCYTE: 14176.33 CELLS/uL
  ABSOLUTE MONOCYTE: 62.33 CELLS/uL
  ABSOLUTE SEGMENTED NEUTROPHIL: 1228 CELLS/uL
  BASOPHIL: 0%
  EOSINOPHIL: 0%
  ERYTHROCYTE COUNT: 5.56 x10E6/uL
  HEMATOCRIT: 36.17%
  HEMOGLOBIN: 14.13 G/DL
  LEUKOCYTE COUNT: 15.47 x10E3/uL
  LYMPHOCYTE: 92.33%
  MEAN CORPUSCULAR HEMOGLOBIN: 25.5 pg
  MEAN CORPUSCULAR HEMOGLOBIN CONCENTRATION: 39.1 G/DL
  MEAN CORPUSCULAR VOLUME: 65.23 fL
  MONOCYTE: 0.33%
  NEUTROPHIL: 7.33%
  NUCLEATED RED BLOOD CELLS: 0 /100WBC
  PLATELET COUNT: 1347.67 x10E3/uL
  ALANINE AMINOTRANSFERASE: 51 u/L
  ALBUMIN: 4.17 G/DL
  ALKALINE PHOSPHATASE: 318.33 u/L
  ASPARTATE AMINOTRANSFERASE: 80 u/L
  BLOOD UREA NITROGEN: 17.33 mg/dL
  CARBON DIOXIDE: 29 mmol/L
  CHLORIDE: 100 MEQ/L
  CHOLESTEROL: 75.33 mg/dL
  CREATINE PHOSPHOKINASE: 240 u/L
  CREATININE: 0.17 mg/dL
  GLUCOSE: 165.33 mg/dL
  LACTATE DEHYDROGENASE: 290 u/L
  LIPASE: 9.67 u/L
  PHOSPHORUS: 12.97 mg/dL
  POTASSIUM: 6.07 MEQ/L
  SODIUM: 146.03 MEQ/L
  TOTAL BILIRUBIN: 0.17 mg/dL
  TOTAL PROTEIN: 6.07 G/DL
  URIC ACID: 1.5 mg/dL

From ChEMBL document CHEMBL3885881, “DrugMatrix”
